Laboratory results as given in patent US7087627B1, “Combinations for the treatment of diseases involving angiogenesis” (Angiogene Pharmaceuticals Ltd., priority 1999, dated 2006).

Assays:
SaS tumours = test: Induction of necrosis in SaS tumours; format: in vivo; conditions: SaS tumour-bearing mice, tumours excised after 24 h, mean score 1-10 by area of necrosis
Experimental: Mice bearing either CaNT or SaS tumours were treated with the test compound and tumours excised after 24 h, fixed in formalin, embedded in paraffin, sectioned and stained with haematoxylin and eosin. Sections were scored based on area of necrosis as follows:
In this assay the effect of a given dose of either a vascular damaging agent or a nitric oxide synthase inhibitor administered alone can be compared with the effect of a combination of the two agents.

CaNT tumours = test: Tumour functional vascular volume measured by fluorescent dye Hoechst 33342; format: in vivo; conditions: CaNT tumour-bearing mice; CA4P 25 mg/kg alone, intra peritoneal; 24 hours after treatment
Experimental: Activity Against Tumour Vasculature Measured by Fluorescent Dye.
Tumour functional vascular volume in CaNT tumour-bearing mice was measured using the fluorescent dye Hoechst 33342 according to the method of Smith et al (Brit J Cancer 57, 247–253, 1988). The fluorescent dye was dissolved in saline at 6.25 mg/ml and injected intravenously at 10 mg/kg 24 hours after intra peritoneal drug treatment. One minute later, animals were killed and tumours excised and frozen; 10 μm sections were cut at 3 different levels and observed under UV illumination using an Olympus microscope equipped with epifluorescence. Blood vessels were identified by their fluorescent outlines and vascular volume was quantified using a point scoring system based on that described by Chalkley, (J Natl Cancer Inst, 4, 47–53, 1943). All estimates were based on counting a minimum of 100 fields from sections cut at the 3 different levels.

| SMILES | Necrosis score ± SEM (n) (SaS tumours; AMP 10 mg/kg alone) | Necrosis score ± SEM (n) (SaS tumours; CA4P 500 mg/kg alone) | Vascular Volume % ± SEM (n) (CaNT tumours) |
| --- | --- | --- | --- |
| Cc1ccnc(N)c1 [AMP, 2-amino-4-methylpyridine] | 1.0 |  |  |
| COc1ccc(/C=C\c2cc(OC)c(OC)c(OC)c2)cc1OP(=O)(O)O [CA4P, Combretastatin A4 phosphate] |  | 1.7 ± 0.7 | 1.03 ± 0.14 (4) % |
